Experimental data from ChEMBL document CHEMBL1201862, “PubChem BioAssay data set” (2004).
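Cells were grown in 96-well plates and exposed to each compound for 48 hours at five concentrations; endpoints were interpolated linearly between bracketing concentrations, or set to the highest concentration if not reached. GI50 marks 50% less growth.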 Active and inactive are the calls of the source. Rule as the data show it: active = GI50 up to about 1.1 µM and inactive = higher.

Columns and labels:
Test in all cases: DTP human tumour cell line panel, 48 h
CCRF-CEM = system: CCRF-CEM
COLO 205 = system: COLO 205
EKVX = system: EKVX
HOP-18 = system: HOP-18
KM-20L2 = system: KM-20L2
LOX IMVI = system: LOX IMVI
M14 = system: M14
NCI-H226 = system: NCI-H226
NCI-H460 = system: NCI-H460
NCI-H522 = system: NCI-H522
OVCAR-5 = system: OVCAR-5
SF-295 = system: SF-295
SK-MEL-2 = system: SK-MEL-2
SNB-78 = system: SNB-78
SR = system: SR
U-251 = system: U-251
XF498 = system: XF498
MDA-MB-231 = system: MDA-MB-231
MDA-MB-435 = system: MDA-MB-435
TK-10 = system: TK-10

Row | Structure (SMILES) | GI50 (CCRF-CEM) | GI50 (COLO 205) | GI50 (EKVX) | GI50 (HOP-18) | GI50 (KM-20L2) | GI50 (LOX IMVI) | GI50 (M14) | GI50 (NCI-H226) | GI50 (NCI-H460) | GI50 (NCI-H522) | GI50 (OVCAR-5) | GI50 (SF-295) | GI50 (SK-MEL-2) | GI50 (SNB-78) | GI50 (SR) | GI50 (U-251) | GI50 (XF498) | GI50 (MDA-MB-231) | GI50 (MDA-MB-435) | GI50 (TK-10)
1 | COc1ccc(N2C(=O)/C(=C(\C)c3cc4ccccc4oc3=O)N=C2c2cc([N+](=O)[O-])ccc2Cl)cc1 | 32.5 µM (inactive) | 43.9 µM (inactive) | > 100 µM (inactive) | 85.1 µM (inactive) | 29.7 µM (inactive) | 34.5 µM (inactive) | 23.6 µM (inactive) | > 100 µM (inactive) | 41.9 µM (inactive) | 11.5 µM (inactive) | > 100 µM (inactive) | 17.1 µM (inactive) | 61 µM (inactive) | 24.4 µM (inactive) | 34.4 µM (inactive) | 48.1 µM (inactive) |  |  |  | 
2 | O=c1ccn([C@@H]2C=C(CO)[C@@H](O)[C@H]2O)c(=O)[nH]1 | > 625 µM (inactive) | > 625 µM (inactive) |  | > 625 µM (inactive) | > 625 µM (inactive) | > 625 µM (inactive) |  | > 625 µM (inactive) | > 625 µM (inactive) | > 625 µM (inactive) |  | > 625 µM (inactive) | > 625 µM (inactive) |  |  | > 625 µM (inactive) | < 0.0625 µM (active) |  |  | 
3 | CCOP(=O)(COCCn1ncc(=O)[nH]c1=O)OCC | > 100 µM (inactive) | > 100 µM (inactive) | > 100 µM (inactive) |  |  | > 100 µM (inactive) | > 100 µM (inactive) | > 100 µM (inactive) | > 100 µM (inactive) | > 100 µM (inactive) | > 100 µM (inactive) |  | > 100 µM (inactive) |  | > 100 µM (inactive) | > 100 µM (inactive) |  | > 100 µM (inactive) | > 100 µM (inactive) | > 100 µM (inactive)
4 | O=c1cnn(C/C=C/CBr)c(=O)[nH]1 | 15.2 µM (inactive) | 18.8 µM (inactive) | 19.6 µM (inactive) |  |  | 16.1 µM (inactive) | 15.3 µM (inactive) | 17 µM (inactive) | 17.2 µM (inactive) | 8.17 µM (inactive) | 17.4 µM (inactive) |  | 17.1 µM (inactive) |  | 17.7 µM (inactive) | 15 µM (inactive) |  | 21.9 µM (inactive) | 14.9 µM (inactive) | 
5 | CCCN1C(=O)/C(=C(/O)C(=O)OCC)C(c2ccc(OC)c(OC)c2)C1=O (configuration not stated) | > 100 µM (inactive) | > 100 µM (inactive) | > 100 µM (inactive) | > 100 µM (inactive) | > 100 µM (inactive) | > 100 µM (inactive) |  | > 100 µM (inactive) | > 31.6 µM (inactive) | > 100 µM (inactive) | > 100 µM (inactive) | > 100 µM (inactive) | > 100 µM (inactive) | > 100 µM (inactive) |  | > 100 µM (inactive) | > 100 µM (inactive) |  |  | 
6 | CCN(CC)CCCC(C)Nc1c2ccc(Cl)cc2nc2cc(Cl)ccc12 (configuration not stated) | 1.76 µM (inactive) | 1.94 µM (inactive) | 9.73 µM (inactive) | 5.42 µM (inactive) | 3.42 µM (inactive) | 2.64 µM (inactive) |  | 4.27 µM (inactive) | 3.31 µM (inactive) | 5.07 µM (inactive) | 6.7 µM (inactive) | 3.4 µM (inactive) | 15.7 µM (inactive) | 9.82 µM (inactive) |  | 5.09 µM (inactive) | 4.99 µM (inactive) |  |  | 
7 | COc1cccc2c1C(=O)c1c(O)c3c(c(O)c1C2=O)C[C@@](O)(C(=O)CN1CCOCC1)C[C@@H]3OC1CC(N)C(O)C(C)O1 (some centres not stated) |  | 5.94 µM (inactive) | 10.4 µM (inactive) | 0.000832 µM (active) | 9.77 µM (inactive) | 2.09 µM (inactive) |  | 1.85 µM (inactive) | 0.446 µM (active) | 2.82 µM (inactive) | 12.4 µM (inactive) | 3.72 µM (inactive) | 9.48 µM (inactive) |  |  | 2.12 µM (inactive) | 2.45 µM (inactive) |  |  | 
8 | O=C1C2=C(C3=NCCc4c[nH]c1c43)c1c(cc(Br)c(O)c1Br)CCN2 | 2.56 µM (inactive) | 3.31 µM (inactive) | 17.8 µM (inactive) | 20 µM (inactive) | 5.07 µM (inactive) | 6.67 µM (inactive) |  | 16.5 µM (inactive) | 9.27 µM (inactive) | 2 µM (inactive) | 25.2 µM (inactive) | 7.13 µM (inactive) | 13.6 µM (inactive) | 5.64 µM (inactive) |  | 11.9 µM (inactive) | 13.9 µM (inactive) |  |  | 
9 | NCCCN(CCCN)CCN(CCN(CCCN)CCCN)CCN(CCCN)CCCN | > 10 µM (inactive) | > 100 µM (inactive) |  |  |  | 67.8 µM (inactive) | > 100 µM (inactive) | > 100 µM (inactive) | > 100 µM (inactive) | 17 µM (inactive) | > 100 µM (inactive) | 55.6 µM (inactive) | > 100 µM (inactive) |  | > 100 µM (inactive) | 66.1 µM (inactive) |  | > 100 µM (inactive) | > 100 µM (inactive) | > 100 µM (inactive)
10 | CC1=NCCc2cc3[nH]c4ccccc4c3cc21 | 12.5 µM (inactive) | 9.91 µM (inactive) | 41.2 µM (inactive) | 18.7 µM (inactive) | 11.2 µM (inactive) | 12.6 µM (inactive) |  | 15.2 µM (inactive) | 13.3 µM (inactive) | 21.3 µM (inactive) | 16.6 µM (inactive) | 13.4 µM (inactive) | 11.3 µM (inactive) | 28.2 µM (inactive) |  | 22.7 µM (inactive) | 10.9 µM (inactive) |  |  | 
11 | Cc1ccc(C(=O)N2c3ccccc3N(C)n3cccc3C2CC(=O)O)cc1 (configuration not stated) | > 100 µM (inactive) | > 100 µM (inactive) | > 100 µM (inactive) |  | > 100 µM (inactive) | > 100 µM (inactive) | > 100 µM (inactive) | > 100 µM (inactive) | > 100 µM (inactive) | > 100 µM (inactive) | > 100 µM (inactive) | > 100 µM (inactive) | > 100 µM (inactive) | > 100 µM (inactive) |  |  | > 100 µM (inactive) |  |  | > 100 µM (inactive)
12 | C[C@]12CCC(=O)C(O)=C1CCC2=O | > 100 µM (inactive) | > 100 µM (inactive) | > 100 µM (inactive) | > 100 µM (inactive) | > 100 µM (inactive) | > 100 µM (inactive) | > 100 µM (inactive) | > 100 µM (inactive) | > 100 µM (inactive) | > 100 µM (inactive) | > 100 µM (inactive) | > 100 µM (inactive) |  | > 100 µM (inactive) | > 100 µM (inactive) | > 100 µM (inactive) |  |  |  | > 100 µM (inactive)
13 | C[C@]12CC/C(=N\O)C=C1CC[C@@H]1[C@@H]2CC[C@]2(C)C(=N/O)/C(=C/c3ccncc3)C[C@@H]12 |  | 15.9 µM (inactive) | 25.7 µM (inactive) |  |  | 20 µM (inactive) | 13.5 µM (inactive) | 6.37 µM (inactive) | 14.6 µM (inactive) | 27.2 µM (inactive) | 42.8 µM (inactive) | 31.3 µM (inactive) | 15 µM (inactive) |  | 12.7 µM (inactive) | 29.2 µM (inactive) |  | 20.8 µM (inactive) | 21.8 µM (inactive) | 36.1 µM (inactive)
14 | c1ccc(-n2cnnc2-c2nsc3ccccc23)cc1 | > 100 µM (inactive) | > 100 µM (inactive) | > 100 µM (inactive) | 9.71 µM (inactive) | > 100 µM (inactive) | > 100 µM (inactive) | > 100 µM (inactive) |  | > 100 µM (inactive) |  | > 100 µM (inactive) |  | > 100 µM (inactive) | > 100 µM (inactive) |  | > 100 µM (inactive) |  |  |  | > 100 µM (inactive)
15 | C=C1C(=O)[C@@]23CC[C@H]4[C@@](C)(CCC[C@@]4(C)C(=O)OC)[C@@H]2CC[C@]1(O)C3 | 0.2 µM (active) | 1.72 µM (inactive) | 2.06 µM (inactive) | 2.07 µM (inactive) |  | 0.953 µM (active) |  | 3.3 µM (inactive) | 3.58 µM (inactive) | 1.54 µM (inactive) | 2.02 µM (inactive) | 5.82 µM (inactive) | 1.71 µM (inactive) |  |  | 3.38 µM (inactive) | 1.75 µM (inactive) |  |  | 
16 | C/C=C1\C[C@@H]2C(OC)Nc3cc(O)c(OC)cc3C(=O)N2C1 (some centres not stated) | < 0.01 µM (active) | 0.00692 µM (active) | < 0.0103 µM (active) | 0.0213 µM (active) | 0.00887 µM (active) | < 0.01 µM (active) | 0.00461 µM (active) | 0.0223 µM (active) | < 0.01 µM (active) | < 0.01 µM (active) | < 0.01 µM (active) | < 0.01 µM (active) | < 0.01 µM (active) |  | 0.000431 µM (active) | < 0.01 µM (active) |  | < 0.01 µM (active) | < 0.01 µM (active) | < 0.0171 µM (active)
17 | CC(=O)OC(C)c1cc2c(s1)C(=O)c1ccsc1C2=O (configuration not stated) | 0.204 µM (active) | 0.776 µM (active) | 0.773 µM (active) |  |  | 0.0117 µM (active) | 0.129 µM (active) | 1.61 µM (inactive) |  | 0.149 µM (active) | 0.458 µM (active) | 0.113 µM (active) | 0.483 µM (active) |  | 0.0748 µM (active) | 0.165 µM (active) |  | 0.209 µM (active) | 0.0168 µM (active) | 1.22 µM (inactive)
18 | C[C@H]1O[C@@H](O[C@H]2[C@@H](O)C[C@H](O[C@H]3[C@@H](O)C[C@H](O[C@H]4CC[C@@]5(C)[C@H](CC[C@@H]6[C@@H]5CC[C@]5(C)[C@@H](C7=CC(=O)OC7)CC[C@]65O)C4)O[C@@H]3C)O[C@@H]2C)C[C@H](O)[C@@H]1O [DIGITOXIN] | < 0.0199 µM (active) | 0.0501 µM (active) | 0.0286 µM (active) |  |  |  |  | 0.0635 µM (active) |  | < 0.01 µM (active) | 0.0543 µM (active) | 0.0258 µM (active) | 0.0641 µM (active) |  | 0.0338 µM (active) |  |  | 0.129 µM (active) | 0.0485 µM (active) | 0.0252 µM (active)
